{"source": "ChEMBL document CHEMBL1151104", "about": "“Mollinedine, a New Alkaloid from Mollinedia costaricensis” (J Nat Prod, 1988)", "key": {"Rattus norvegicus": {"species": "Rattus norvegicus", "assay": "Inhibition of ouabain-induced myocardial arrhythmias in rat", "type": "functional, organism-based"}, "Cavia porcellus": {"species": "Cavia porcellus", "assay": "Inhibition of CaCl2-induced myocardial arrhythmias in guinea pig", "type": "functional, organism-based"}}, "note": "Activity calls are given as the source filed them. The rule behind the calls is not given here.", "data": [{"smiles": "c1cc2cc3c(cc2c(Cc2ccc4c(c2)OCO4)n1)OCO3", "values": [{"measurement": "Activity", "setting": "Rattus norvegicus", "result": "Active"}, {"measurement": "Activity", "setting": "Cavia porcellus", "result": "Active"}]}]}
